Assay results: PubChem BioAssay AID1996
Values after ≈ are worked out from the molar mass of the structure shown. Values joined by “and” are separate entries in the source; they are usually repeats but may differ in a detail not shown here. Identical values can stand only once.

Details: buffer; pH 7.4; 200.0 µM

Compound	solubility kinetic
Cn1cc(S(=O)(=O)Nc2ccc(OC(F)(F)F)cc2)c(=O)n(C)c1=O	> 56.9 µg/mL
CC(CCc1ccccc1)NC(=O)CCC(=O)N1CCC(C(=O)O)CC1 (configuration not stated)	> 54.1 µg/mL
COc1ccc2ccccc2c1C1NC(=O)NC(C)=C1[N+](=O)[O-] (configuration not stated)	2.1 µg/mL (≈ 6.7 µM)
CNc1cc(=O)n(C)c(=O)n1-c1ccccc1	> 34.7 µg/mL
Cc1csc(=O)n1CC(=O)Nc1ccc(Cl)c(Cl)c1	9.7 µg/mL (≈ 30.6 µM)
CN1CCN(c2ccc(CNC(=O)c3ccc4c(c3)OCCO4)cc2)CC1	49.7 µg/mL (≈ 135 µM)
Cc1ccccc1Nc1nc(N)nc(-c2oc3ccccc3c2C)n1	1 µg/mL (≈ 3.02 µM)
CN(C)c1ccc(C(=O)NCC(c2cccs2)N2CCOCC2)cc1 (configuration not stated)	49.3 µg/mL (≈ 137 µM)
O=C(Cc1ccc(-c2ccccc2)cc1)Nc1ccccc1	1.7 µg/mL (≈ 5.92 µM)
CCc1ccccc1NC(=O)C1CCN(C(=O)c2cccs2)CC1	> 51.4 µg/mL
Cc1cc(C)nc(Nc2nc3ccccc3s2)n1	< 0.1 µg/mL
Cc1ccc(OCC(=O)N2CCC3(CC2)CC(=O)c2ccccc2O3)cc1	54.2 µg/mL (≈ 148 µM)
O=C(Nc1nccs1)c1ccc(Cl)nc1	> 36 µg/mL
O=C(NCc1ccccn1)Nc1ccccc1Cl	> 39.3 µg/mL
COc1ccccc1N(C)S(=O)(=O)c1ccc(C(=O)O)cc1	> 48.2 µg/mL
O=C(COc1ccc([N+](=O)[O-])cc1Cl)NCC1CCCO1 (configuration not stated)	> 47.2 µg/mL
Cc1cc(C)cc(OCC(=O)O/N=C(\N)c2cccnc2)c1	38.3 µg/mL (≈ 128 µM)
COc1ccc(S(=O)(=O)NC2CCCCC2)cc1F	> 43.1 µg/mL
Cc1ccc(C(=O)NCC(=O)Nc2ccc(F)c(F)c2F)cc1	2.3 µg/mL (≈ 7.14 µM)
COC(=O)c1c(C)oc(C)c1S(=O)(=O)N1CCCC1	38.3 µg/mL (≈ 133 µM)
Cc1[nH]c2ccc(C(=O)N3CCCC3)cc2c1C	> 36.3 µg/mL
CC(C)OC(=O)NCCOC(=O)Nc1ccccc1Cl	> 45.1 µg/mL
O=C(CC1SC(N2CCOCC2)=NC1=O)Nc1cccc(C(F)(F)F)c1 (configuration not stated)	27.8 µg/mL (≈ 71.8 µM)
CC1=CC(C)(C)NC(=S)N1c1ccccc1C	13.6 µg/mL (≈ 55.2 µM)

Compound	solubility kinetic
COc1cc(CCC(=O)NCc2ccc(F)cc2)cc(OC)c1OC	> 52.1 µg/mL
CC(C)N(Cc1ccccc1)C(=S)Nc1cccnc1	> 42.8 µg/mL
Cc1csc(SCC(=O)Nc2cc(C(N)=O)cc(C(N)=O)c2)n1	51.6 µg/mL (≈ 147 µM)
C=CCNC(=O)c1ccccc1CCc1ccccc1	> 39.8 µg/mL
COC(=O)CC(CP(=O)([O-])CN(C)C=O)C(=O)OC (configuration not stated)	27.9 µg/mL
Cc1ccc(C(=O)OCC(=O)NC2CCS(=O)(=O)C2)c(C)c1 (configuration not stated)	> 48.8 µg/mL
Cc1[nH]c2ccccc2c1C(=O)C(=O)N1CCN(C)CC1	> 42.8 µg/mL
CCOc1ccc(N=Cc2c(O)n(-c3ccc(C)c(C)c3)c(=O)[nH]c2=O)cc1	2.9 µg/mL (≈ 7.64 µM)
COCCCNc1oc(/C=C/c2ccccc2)nc1C#N	3.7 µg/mL (≈ 13.1 µM)
C=CCn1c(P(C)(=O)[O-])nc2ccccc21.[K+]	> 41.1 µg/mL
COc1ccc(NC(=O)c2ccc3ccccc3c2OC)cc1	< 0.7 µg/mL
O=C(CNC(=O)c1ccc2ccccc2c1)NC1CCCCC1	13 µg/mL (≈ 41.9 µM)
Cc1ccc(S(=O)(=O)NCc2ccncc2)cc1C	> 41.5 µg/mL
COc1ccccc1N1C(=O)CC(N(O)c2ccccc2)C1=O (configuration not stated)	> 46.8 µg/mL
COc1ccc(OC)c2c(C)cc(N3CCCCCC3)nc12	6.3 µg/mL (≈ 21 µM)
CC1CCCCC1NC(=O)C(C)N1C(=O)c2ccccc2C1=O (configuration not stated)	> 47.2 µg/mL
CCCCN(C)Cc1cc(=O)oc2cc3c(cc12)CCCC3	< 0.6 µg/mL
Cc1ccc(C(=O)Nc2ccc(C)c(S(=O)(=O)N3CCOCC3)c2)c(C)c1	37.9 µg/mL (≈ 97.6 µM)
CC1CC(C)CN(S(=O)(=O)c2ccc3oc(=O)ccc3c2)C1 (configuration not stated)	14 µg/mL (≈ 43.6 µM)
CN(Cc1ccccc1)S(=O)(=O)c1ccc2c(c1)n(C)c(=O)c(=O)n2C	1.4 µg/mL (≈ 3.75 µM)
COCC(C)NC(=O)C(C)N1c2cccc3cccc(c23)S1(=O)=O (configuration not stated)	50.9 µg/mL (≈ 146 µM)
O=C(Nc1cccc(O)c1)c1cccc(S(=O)(=O)Nc2cccc(O)c2)c1	> 57.7 µg/mL
CCC(=O)Nc1ccc(C2C(=O)c3ccccc3C2=O)cc1	> 44 µg/mL
CS(=O)(=O)c1ccc(NCCN2CCOCC2)c([N+](=O)[O-])c1	44.4 µg/mL (≈ 135 µM)

Compound	solubility kinetic
Clc1ccc(-c2csc(Nc3cccnc3)n2)cc1	0.3 µg/mL (≈ 1.04 µM)
O=C(/C=C/c1cccc(F)c1)Nc1cc(S(=O)(=O)N2CCOCC2)ccc1Cl	6.3 µg/mL (≈ 14.8 µM)
COCCSc1ccccc1C(=O)NCc1cccnc1	> 45.4 µg/mL
O=C(NCc1cccnc1)C(=O)Nc1nccs1	20.4 µg/mL (≈ 77.8 µM)
Cc1cc(C)nc(NC(N)=S)n1	10.4 µg/mL (≈ 57.1 µM)
Cl.NCC12CC3CC(C1)CC(c1ccc(Cl)cc1)(C3)C2	> 46.8 µg/mL
Cc1nc(Cl)c(C(=O)NCc2ccccc2)c(C)c1Cl	35.6 µg/mL (≈ 115 µM)
COc1ccc(CN(C)CC(=O)Nc2cccc3ccccc23)cc1F	15.1 µg/mL (≈ 42.8 µM)
Cc1ccc(CNC(=O)COC(=O)C2CCC2)cc1	> 39.2 µg/mL
CN(CC(=O)Nc1cccc(F)c1)CC(=O)N1CCCCC1	> 46.1 µg/mL
CN(C)c1ccc(CNCC2CCCO2)cc1.Cl (configuration not stated)	> 40.6 µg/mL
CC(=O)c1c(C)[nH]c(C(=O)COC(=O)c2c(-c3ccccc3)noc2C)c1C	2.1 µg/mL (≈ 5.52 µM)
O=C(c1ccc(Cn2cc([N+](=O)[O-])cn2)o1)N1CCCC1	> 43.5 µg/mL
CCOC(=O)c1cc(C(=O)NC(C)c2ccccc2)c(=O)[nH]c1C (configuration not stated)	1.6 µg/mL (≈ 4.87 µM)
O=[N+]([O-])C1=CC=C2C(=NC3(CCCCC3)N2O)C1=NC1CCCCC1	24.6 µg/mL (≈ 71.4 µM)
CCC(CC)C(=O)Nc1cccc(C(=O)NCCc2ccccc2)c1	40.8 µg/mL (≈ 121 µM)
CCn1cnc2cc(NC(=O)c3ccc(C)cc3)ccc21	> 41.9 µg/mL
CNc1nc2c(N)ncnc2n1[C@H]1O[C@@H](CO)[C@H](O)[C@@H]1O	> 44.4 µg/mL
CN(C(=O)c1ccc(N2CCCCC2)c([N+](=O)[O-])c1)C1CCS(=O)(=O)C1 (configuration not stated)	> 57.2 µg/mL
O=C(CSc1cccc[n+]1[O-])N1CCCCCC1	27 µg/mL (≈ 101 µM)
Cl.Fc1ccc(CN2C3=NCCN3c3ccccc32)cc1	43.2 µg/mL
O=C(Nc1cc(Cl)ccc1N1CCOCC1)c1cccnc1Cl	49.7 µg/mL (≈ 141 µM)
Cl.O=C(NC1CCN(Cc2ccccc2)CC1)c1ccccc1NS(=O)(=O)c1ccc(F)cc1	> 75.6 µg/mL
NS(=O)(=O)c1cnccc1Nc1cccc(Br)c1	36.3 µg/mL (≈ 111 µM)

Compound	solubility kinetic
COC(=O)c1ccc(NC(=O)CCN2CCOCC2)cc1	> 43.9 µg/mL
Cc1cc(F)ccc1NCc1ccc([N+](=O)[O-])cc1	0.3 µg/mL (≈ 1.15 µM)
Nc1c(C(=O)O)cnn1-c1ccc([N+](=O)[O-])cc1	> 37.2 µg/mL
Cc1ccc(C(=O)NC(C)CCc2ccccc2)cc1S(=O)(=O)N1CCOCC1 (configuration not stated)	5.6 µg/mL (≈ 13.4 µM)
Cl.OCCNCc1cccc(Br)c1	> 40 µg/mL
N#Cc1ccccc1NC(=S)NC(=O)c1cccnc1	28.9 µg/mL (≈ 102 µM)
CC1CC2(CCCC2)N(C(=O)N(C)C)c2ccc(F)cc21 (configuration not stated)	10.5 µg/mL (≈ 36.2 µM)
COc1ccc(NC(C)=O)cc1NC(=O)c1ccc2ccccc2c1	13 µg/mL (≈ 38.9 µM)
C=CCN=C1S/C(=C\N(C)C)C(=O)N1S(=O)(=O)c1ccc(C)cc1	2.8 µg/mL (≈ 7.66 µM)
Br.C=CCN1C2=NCCCN2c2ccccc21	> 44.1 µg/mL
O=C(O)c1cc([N+](=O)[O-])ccc1NCCCc1ccccc1	> 45 µg/mL
O=C(COC(=O)/C=C/c1ccc(Br)o1)Nc1cccc(S(=O)(=O)N2CCOCC2)c1	5.9 µg/mL (≈ 11.8 µM)
CSc1ccccc1NC(=O)COC(=O)c1ccc(O)cc1	12.2 µg/mL (≈ 38.4 µM)
CS(=O)(=O)c1ccc(NCCc2ccccn2)c([N+](=O)[O-])c1	44.2 µg/mL (≈ 138 µM)
COc1ccc(OCCC(=O)Nc2ccc(S(N)(=O)=O)cc2)cc1	48.1 µg/mL (≈ 137 µM)
CCOC(=O)C1=C(C)NC(=O)NC1/C=C/c1ccccc1OC (configuration not stated)	2.6 µg/mL (≈ 8.22 µM)
CCc1ccccc1OCCCN1CCCC1.O=C(O)C(=O)O	43.9 µg/mL
Cc1ccc(-c2csc3nc[nH]c(=O)c23)cc1	19.5 µg/mL (≈ 80.5 µM)
O=C1NC(=S)N(C(=O)c2ccc(F)cc2)/C1=C/c1cccnc1	2 µg/mL (≈ 6.11 µM)
O=C(c1ccco1)N1CCN(c2ccc([N+](=O)[O-])cc2Cl)CC1	3.8 µg/mL (≈ 11.3 µM)
O=C(O)c1ccc2c(c1)C(=O)N(CCc1ccccc1)C2=O	> 44.3 µg/mL
O=C1NC(=Nc2ccccc2Cl)S/C1=C\c1cccc([N+](=O)[O-])c1	4.2 µg/mL (≈ 11.7 µM)
Cc1c(CCC(=O)NC2CC2)c(=O)oc2cc(O)ccc12	> 43.1 µg/mL
CNCCCC12CCC(c3ccccc31)c1ccccc12.Cl	45.8 µg/mL and > 47.1 µg/mL

Compound	solubility kinetic
COc1ccc2cc(C(=O)NCC3CCCO3)[nH]c2c1 (configuration not stated)	> 41.1 µg/mL
O=C(CC1CCCCC1)NCc1ccccc1	30.5 µg/mL (≈ 132 µM)
O=C(COC(=O)CN1C(=O)NC2(CCCC2)C1=O)NCc1ccc(Cl)cc1Cl	> 64.2 µg/mL
NC(=O)C1c2ccccc2Oc2ccccc21	24.8 µg/mL (≈ 110 µM)
CCNc1ccc([N+](=O)[O-])cc1	19.9 µg/mL (≈ 120 µM)
Cc1cc(Cl)ccc1OC(C)C(=O)NC(C)C1CCCO1 (configuration not stated)	> 46.8 µg/mL
O=C(O)C1CCCN(S(=O)(=O)Cc2ccccc2)C1 (configuration not stated)	37.7 µg/mL (≈ 133 µM)
CC1(C)CC(=O)C(C(O)c2cccc([N+](=O)[O-])c2)C(C)(C)N1 (configuration not stated)	44.9 µg/mL (≈ 147 µM)
COc1ccc(C(=O)NCCc2c[nH]c3ccc(OC)cc23)cc1	> 48.7 µg/mL
COc1ccc(C(=O)N2CCCc3ccccc32)cc1OC	32.4 µg/mL (≈ 109 µM)
O=C(COC(=O)c1cc(S(=O)(=O)N2CCOCC2)ccc1F)NCc1ccc2c(c1)OCO2	> 72.1 µg/mL
Cc1ccc(OCCCCNC(C)c2ccccc2)c(C)c1 (configuration not stated)	32.2 µg/mL (≈ 108 µM)
CN(NC1OC(=O)c2ccccc21)c1ccccc1[N+](=O)[O-] (configuration not stated)	> 44.9 µg/mL
O=C1CCC(=O)N1c1ccccc1	> 26.3 µg/mL
CCOc1ccc(C(=O)NCC2CCN(CC3CCCCC3)CC2)cc1	> 53.8 µg/mL
O=C1Nc2ccc([N+](=O)[O-])cc2OC1CCN1CCOCC1 (configuration not stated)	> 46.1 µg/mL
COc1ccc(-c2cc(C(=O)Nc3ccccc3O)c3ccccc3n2)cc1	< 0.4 µg/mL
COc1ccc(OCCn2cc(C=O)c3ccccc32)cc1	14.4 µg/mL (≈ 48.8 µM)
NS(=O)(=O)c1ccc(CCNC(=O)CN2CCCCC2)cc1	45.4 µg/mL (≈ 140 µM)
O=C(NC1CSCC1OC(=O)c1ccccc1)c1ccccc1 (configuration not stated)	26.1 µg/mL (≈ 79.7 µM)
CC1(C)CC(=O)C2=C(C1)NC(=O)NC2c1ccccc1 (configuration not stated)	39.9 µg/mL (≈ 148 µM)
